What all share (type): in vivo, mouse
The test system of assay [1] is MerCreMer/ZEG (M/Z) mice. Nature of the assay: Cardiomyocyte replenishment after myocardial infarction, GFP+ / β-Gal+ cardiomyocyte counting. As to conditions: for stem cell-mediated cardiomyocyte reconstitution: aged mice (>18 months), 14 days post-MI. The protocol: All experiments involving animals were conducted in accordance with the Guide for the Use and Care of Laboratory Animals, and all animal protocols have been approved by National Cheng Kung University. Sca-1^− GFP, B6.Cg-Tg(Ly6a-GFP)G5Dzk/J and EP2^−/−, B6.129-Ptger2^tm/Brey/J mice were obtained from Jackson Laboratory. The double transgenic MerCreMer/ZEG (M/Z) mice were generated by crossbreeding MerCreMer and Z/EG mice (Jackson Laboratory), which have C57BL/6SV129 and C57BL/6J (N7) background strains, respectively. The MerCreMer mice contain a tamoxifen-inducible Cre recombinase fusion protein driven by the cardiomyocyte-specific α-MHC promoter. In Z/EG mice, GFP replace constitutive β-Gal expression after the removal of a LoxP-flanked stop sequence by Cre.
(§1) M/Z mice were subjected to experimental myocardial infarction (MI) one month after the last tamoxifen injection. MI was generated by ligating the left anterior descending coronary artery at 2-3 mm distal to the left atrial appendage. For cell transplantation experiments, intramyocardial injections were performed immediately after coronary ligation. A total of 6×10^5 cardiac Sca-1^+ cells were injected per mouse in two divided injections (5 μl/injection). For BrdU labeling, the mice were subcutaneously implanted with osmotic minipump (Alzet) at the time of surgery and 40 μg/μl of BrdU (Sigma) was administrated. For immunohistological studies, mice were sacrificed and the hearts were harvested at different time points following experimental MI surgery. Cardiac performances were assessed by echocardiography at 28 and 56 days after operation using Vevo 770 (Visualsonics, Toronto, Canada).
(§2) To induce Cre recombination to achieve GFP labeling of cardiomyocytes, tamoxifen (Sigma) was dissolved in sunflower oil (Sigma) at a concentration of 5 mg/ml. The tamoxifen solution was injected intraperitoneally into M/Z mice daily at a dosage of 40 μg per 1 g body weight for 14 days, and the same dosage was injected twice daily for short-term labeling using methods known in the art (Laugwitz, K.-L. et al. Nature 433, 647-653 (2005)). All experimental conditions were optimized prior to the PGE2, indomethacin and TGF-β Type I Receptor Kinase Inhibitor II (ALK5 Inhibitor II, ALK5i, Merck) treatments. The mice treated with PGE2 or PGI2 (Vegiopoulos, A. et al. Science 328, 1158-1161 (2010)) (both from Sigma) were injected intraperitoneally with 3.33 ng of drug per 1 g of body weight dissolved in absolute ethanol twice daily. For the indomethacin treatment, mice were fed with water containing indomethacin (Sigma, 15 μg/ml) for different periods of time. The indomethacin-containing water was changed every 3 days. The mice subjected to the celecoxib (Lyons, T. R. et al. Nat. Med. 17, 1109-1115 (2011)) (Sigma) treatment were injected intraperitoneally with 5 μg of drug per 1 g of body weight daily. For ALK5i treatment, aged mice were injected intraperitoneally once per day with 1 μg of drug per 1 g of body weight one day before surgery and continuously until day 10 post-MI. Celecoxib and ALK5i were dissolved in ethanol and DMSO, respectively.
All of the cellular quantifications were performed double-blindly to minimize personal bias. […] For the cardiomyocyte cell counts, 3 sections from each heart, and 2 infarction border zones and 1 remote area from each section were analyzed at a magnification of 200× by light microscopy. Cells with visible sarcomere structures were analyzed, and the average number of cells counted was 171.8±5.8 per photo image. For the small cardiac cell counts, more than five sections from each heart were analyzed at a magnification of 400× using fluorescence microscopy. The average number of cells counted was 17.01±0.99 per photo image, and more than one hundred and fifty cells were analyzed from each heart. As quantification result is the averaged values calculated from the pictures taken from six border zone sections per heart, personal variation has been minimized. […]

For assay [2], the system named is Sca-1. Description: Quantitative RT-PCR of Sca-1 in infarct zone of MI heart. As to conditions: day 3 post-MI. The method, then:
as §2
(§3) The total RNA isolated from the ischemic region or remote area of MI hearts was reverse transcribed using the SuperScript III (Invitrogen) system according to the manufacturer's protocol. For quantitative PCR, the SYBR Green reagent (Maestrogen) was used according to the manufacturer's protocol. The analysis of relative gene expression was performed using the 2̂[−delta delta Ct] method and sequence-specific primers designed for semi-quantitative PCR and real-time RT-PCR (FIG. 11).

Assay [3] deals with interleukin-10 (IL-10). Nature of the assay: Quantitative RT-PCR of IL-10 at injured region. As to conditions: both young and old mice; day 3 after infarction. The method, then: (§4) To induce Cre recombination to achieve GFP labeling of cardiomyocytes, tamoxifen (Sigma) was dissolved in sunflower oil (Sigma) at a concentration of 5 mg/ml. The tamoxifen solution was injected intraperitoneally into M/Z mice daily at a dosage of 40 μg per 1 g body weight for 14 days, and the same dosage was injected twice daily for short-term labeling using methods known in the art (Laugwitz, K.-L. et al. Nature 433, 647-653 (2005)). All experimental conditions were optimized prior to the PGE2, indomethacin and TGF-β Type I Receptor Kinase Inhibitor II (ALK5 Inhibitor II, ALK5i, Merck) treatments. The mice treated with PGE2 or PGI2 (Vegiopoulos, A. et al. Science 328, 1158-1161 (2010)) (both from Sigma) were injected intraperitoneally with 3.33 ng of drug per 1 g of body weight dissolved in absolute ethanol twice daily. […]
as §3

The subject of assay [4] is MerCreMer/ZEG (M/Z) mice. Description: Echocardiography after myocardial infarction (ejection fraction). As to conditions: echocardiography at one and two months post-infarction. The method, then: as §1
To induce Cre recombination to achieve GFP labeling of cardiomyocytes, tamoxifen (Sigma) was dissolved in sunflower oil (Sigma) at a concentration of 5 mg/ml. The tamoxifen solution was injected intraperitoneally into M/Z mice daily at a dosage of 40 μg per 1 g body weight for 14 days, and the same dosage was injected twice daily for short-term labeling using methods known in the art (Laugwitz, K.-L. et al. Nature 433, 647-653 (2005)). […]

Assay [5] deals with M1 (CD11b+/CD11c+) and M2 (CD11b+/CD206+) macrophages. Description: Immunostaining of M1 and M2 macrophages in heart sections day 3 post-infarction. The conditions noted are these: young mice. The protocol:
as §4, with “daily. For the indomethacin treatment, mice were fed with water containing indomethacin (Sigma, 15 μg/ml) for different periods of time.” for “daily.”
The harvested hearts were fixed with 4% paraformaldehyde and embedded in paraffin. […] A DAB substrate kit (Vector Laboratories) was used for immunohistochemistry and appropriate secondary antibodies (Invitrogen or Abcam) were used for visualization under a fluorescence microscope. […] The appropriate secondary antibodies (Invitrogen or Jackson ImmunoResearch) were used for visualization under a fluorescence microscope. […]

Assay [6] has as its system EP2. Nature of the assay: Quantitative RT-PCR of PGE2 receptors at infarct region of MI heart. The method, then: as §4, §3
Assay [7] deals with CD11b. Description: Quantitative RT-PCR of myeloid cell marker CD11b in infarct region. As to conditions: both young and old mice; day 3 post-infarction. The method, then: as §4, §3

Molecules are shown by their SMILES.

This is an account of results in patent publication US20130331389A1, “Methods and Compositions for Cardiomyocyte Replenishment by Endogenous and Progenitor Stem Cells” (NATIONAL CHENG KUNG UNIVERSITY, priority 2012, published 2013).

Turning to `CCCCC[C@H](O)/C=C/C1C(O)CC(=O)C1C/C=C\CCCC(=O)O` (stereo partly drawn) [PGE2, (5Z,11α,13E,15S)-7-[3-hydroxy-2-(3-hydroxyoct-1-enyl)-5-oxo-cyclopentyl]hept-5-enoic acid], the “stem cell-mediated cardiomyocyte reconstitution” value in assay [1] (border zone, P<0.01 versus sham or MI) is “successfully recover”; in assay [1] (remote area) it was “not in the remote area”. In assay [1] (border zone, PGE2 plus indomethacin, P<0.01), the “rescue of cardiomyocyte replenishment compared to indomethacin treatment alone” value was “about 10%”. Further, in assay [1] (border zone, young mice, 3.33 ng per 1 g i.p. twice daily for 14 days, P<0.01), the “increase of cardiomyocyte replenishment compared to the vehicle control” value is reported as “about 9%”. In addition, the Sca-1 expression result in assay [2] (aged animals) is recorded as “restored Sca-1 expression to levels similar to those in young mice”; in assay [2] (young mice), “further increased”. Further, the “expression of interleukin-10 (IL-10)” value in assay [3] is “enhanced”. Besides, the “cardiac function post-MI” value in assay [4] is “improved”. Moreover, the “number of M1 macrophage” value in assay [5] is “reduced”. The “number of M2 macrophage” value in assay [5] is “increased”. Also, in assay [6], the “expression of PGE2 receptor EP2 in hearts after MI” value is “significantly induced”. Moreover, the CD11b level result in assay [7] was “induced”.
